Data reported in ChEMBL document CHEMBL1123935 (J Med Chem, 1987).

Target: D(2) dopamine receptor (Rattus norvegicus, UniProt P61169)
Test: Compound was tested for inhibitory activity against the binding of [3H]spiperone to Dopamine receptor D2 in rat striatal membranes
Format: cell membranes, Membrane

Chain of D(2) dopamine receptor (P61169 whole entry): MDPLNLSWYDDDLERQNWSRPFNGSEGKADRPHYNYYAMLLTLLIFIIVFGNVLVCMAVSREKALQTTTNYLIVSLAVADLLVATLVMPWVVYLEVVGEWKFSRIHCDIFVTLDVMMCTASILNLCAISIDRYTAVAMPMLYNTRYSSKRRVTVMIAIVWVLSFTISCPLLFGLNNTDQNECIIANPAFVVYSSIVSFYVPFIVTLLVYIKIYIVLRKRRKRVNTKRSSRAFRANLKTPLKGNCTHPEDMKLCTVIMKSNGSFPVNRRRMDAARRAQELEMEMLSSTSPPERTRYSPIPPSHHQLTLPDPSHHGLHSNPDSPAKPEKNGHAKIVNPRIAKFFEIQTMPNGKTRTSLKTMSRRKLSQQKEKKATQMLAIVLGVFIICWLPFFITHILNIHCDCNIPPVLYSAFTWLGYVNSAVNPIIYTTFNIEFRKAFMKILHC

| Ki [nM] | SMILES |
| --- | --- |
| 280 | C[S+](C)CCCN1c2ccccc2Sc2ccc(Cl)cc21 |
| 2150 | C[N+](C)(C)CCCN1c2ccccc2Sc2ccc(Cl)cc21 |
